According to patent US4544660A, “Pharmaceutically active tropanes” (Beecham Group p.l.c., priority 1978, dated 1985):

Experiments:
Type in all cases: in vivo
Dopamine Receptor [1] = assay: Inhibition of apomorphine induced stereotype behaviour in the rat; details: s.c., apomorphine induced, complete inhibition, IA(x) = inactive at dose in brackets
Description: (§1) I. Dopamine Receptor Blocking Activity in the Central Nervous System
(a) Inhibition of apomorphine induced stereotype behaviour in the rat
(method of Ernst (1967), Psychopharmacologia (Berl.) 10 316-323).

vomiting response = assay: Anti-emetic activity in the dog (apomorphine induced vomiting); details: Canis lupus familiaris, 30 min before apomorphine HCl 0.1 mg/kg s.c.; for ED100: s.c., complete inhibition, read-out: II Anti-Emetic Activity Dose, Complete Inhibition
Experimental: II. Anti-emetic activity in the dog
Compounds were administered subcutaneously 30 minutes prior to administration of a standard dose of apomorphine HCl (0.1 mg/kg subcutaneously) and the vomiting response compared to that obtained when the same animals were dosed with apomorphine HCl and vehicle only.

gastric emptying = assay: Increase in gastric emptying: reversal of apomorphine induced delay in gastric emptying in the rat; set-up: key to III(b) Increase in Gastric Emptying: IA: inactive at the dose in the brackets, mg/Kg s.c; details: 10 mg/kg s.c.; for III(b) Increase in Gastric Emptying: apomorphine HCl 5 mg/kg s.c. induced delay
Experimental: (b) Increase in gastric emptying: reversal of apomorphine induced delay in gastric emptying in the rat
Rats equipped with chromic gastric fistulae were used and it was through this that 5 ml of a test meal (5 ml phosphate buffer at pH 9) was administered and recovered. The % recovery of the standard meal after remaining in the stomach for 10 minutes was taken as an index of gastric emptying. Delay in gastric emptying was induced by the administration of apomorphine HCl (5 mg/kg subcutaneously) which was given 15 minutes prior to the subcutaneous administration of the compound. The % recoveries of the test meal were determined at 15-25 and 45-55 minutes post-dosing with the compound and compared with vehicle only dosed animals set up simultaneously. Six animals were used for each group.

Dopamine Receptor [2] = assay: Inhibition of apomorphine induced climbing in the mouse; details: p.o., apomorphine 1 mg/kg s.c., complete inhibition
Experimental: as §1
(b) Inhibition of apomorphine induced climbing in the mouse
The test is based on that described by Protais, P., Constantin, J. and Schwartz J.C. (1976), Psychopharmacology, 50, 1-6.
Apomorphine 1 mg/kg s.c. induces mice to climb the wall of a wire cage (inverted food hopper--11×7.5×18 cm high). Mice acclimatised in their home cages in groups of 5 are placed under the hoppers immediately after the injection of apomorphine 1 mg/kg s.c. At 10,20 and 30 minutes after injection climbing behaviour is scored. The mice are observed for 30 seconds and scored according to the position they spend the majority of time in, score 0--four paws on floor of cage; score 1--fore paws only on walls; score 2--all paws on wall of cage. The scores at all 3 times and for each mouse are summed and mice drug treated orally compared to mice receiving apomorphine only. A saline only treated group is also included and any score, generally <5% of maximum taken into account.

intragastric pressure = assay: Increase in intragastric pressure in the rat; set-up: III(a) Increase in Intragastric Pressure Dose (minimum dose for activity): unit not given here; details: s.c., 40 minute period after administration; for minimal effective dose: sc, 40 min, read-out: III(a) Increase in Intragastric Pressure Dose (minimum dose for activity)
Experimental: (a) Increase in intragastric pressure in the rat
Intragastric pressure changes were recorded from previously starved conscious but restrained rats using a saline filled catheter inserted into the lumen of the stomach via a permanent gastric fistula. The catheter was connected to a physiological pressure transducer and pressure changes recorded on a hot wire pen recorder. In each animal a pre-dose period of 40 minutes was allowed to obtain a measure of spontaneous activity. An index of activity was obtained by measuring the average height of pressure waves during 10 minute periods. Values for 4 such periods were obtained during assessment of spontaneous activity and for the 40 minute period after the subcutaneous administration of the compounds. Students `t` test was applied to the difference in average values obtained for spontaneous and post-compound activity.

Compound	I(a) Dose Inhibiting Stereotype Behaviour (dose for complete inhibition) (Dopamine Receptor [1])	ED100 (vomiting response)	I(b) Anti-Climbing Activity Dose, Complete Inhibition (Dopamine Receptor [2])	minimal effective dose (intragastric pressure)	other results
COc1cc(N)c(Cl)cc1C(=O)NC1CC2CCC(C1)N2Cc1ccccc1 (stereo not drawn) [Compound 2, 4-amino-5-chloro-2-methoxy-N-(3'α, 8-[8'-benzyl]8-azabicyclo[3,2,1]octyl)benzamide]	10 mg/kg	0.0025 mg/kg			% Recovery of test meal, mean ± S.E. of mean, 15-25 mins. (gastric emptying; 15-25 mins post dosing, apomorphine, printed with **, apomorphine + vehicle 72.4 ± 5.1): 37.4 ± 6.7%; % Recovery of test meal, mean ± S.E. of mean, 45-55 mins. (gastric emptying; 45-55 mins post dosing, apomorphine, printed with ***, apomorphine + vehicle 60.7 ± 7.3): 18.3 ± 1.1%
COc1cc(N)c(Cl)cc1C(=O)N[C@H]1C[C@H]2CC[C@@H](C1)N2Cc1ccccc1 [Compound 3, 4-amino-5-chloro-2-methoxy-N-(3',α-[8'-benzyl]nortropyl)benzamide]	50 mg/kg	0.05 mg/kg			
COc1cc(N)c(Cl)cc1C(=O)N(C)[C@H]1C[C@H]2CC[C@@H](C1)N2Cc1ccccc1 [Compound 6, 4-Amino-5-chloro-2-methoxy-N-methyl-N-(3'α-[8'-benzyl-8'-azabicyclo[3.2.1]octyl])benzamide]	IA(50)		IA (inactive at 10 mg/Kg p.o.)	10 mg/kg	III(b) Increase in Gastric Emptying (gastric emptying): IA(50)
COc1ccc(S(N)(=O)=O)cc1C(=O)N[C@@H]1C[C@H]2CC[C@@H](C1)N2Cc1ccccc1 [Compound 8, 5-Sulphamoyl-2-methoxy-N-(3'β-[8'-benzyl]-8'-azabicyclo-[3.2.1]-octyl)-benzamide]		0.1 mg/kg	IA (inactive at 10 mg/Kg p.o.)		III(a) Increase in Intragastric Pressure Dose (minimum dose for activity) (intragastric pressure): IA(5)
COc1ccccc1C(=O)N[C@@H]1C[C@H]2CC[C@@H](C1)N2Cc1ccccc1 [Compound 9, 2-Methoxy-N-(3'β-[8'-benzyl-8'-azabicyclo-[3.2.1]-octyl])-benzamide]		0.1 mg/kg	10 mg/kg		
COc1cc(N)c(Cl)cc1C(=O)N[C@@H]1C[C@H]2CC[C@@H](C1)[N+]2(C)Cc1ccccc1 (stereo partly drawn) [Compound 10, 4-Amino-5-chloro-2-methoxy-N-(3'β-[8'-benzyl]-8'-azabicyclo[3.2.1]octyl)-benzamide methobromide]			IA(2)	0.25 mg/kg	
COc1cc(N)c(Cl)cc1C(=O)N[C@H]1C[C@H]2CCC[C@@H](C1)N2Cc1ccccc1 [Compound 11, 4-amino-5-chloro-2-methoxy-N-(3'α-[9'-benzyl-9'-azabicyclo-[3,3,1]-nonyl])-benzamide]	IA(50)		IA (inactive at 10 mg/Kg p.o.)	1 mg/kg	
COc1ccc(CN2[C@@H]3CC[C@H]2C[C@H](NC(=O)c2cc(Cl)c(N)cc2OC)C3)cc1 [Compound 14, 4amino-5-chloro-2-methoxy-N-(3β-[8'[4"methoxybenzyl]-8'-azabicyclo[3.2.1]octyl])-benzamide]		0.1 mg/kg	10 mg/kg		
CCOc1ccc(CN2[C@@H]3CC[C@H]2C[C@H](NC(=O)c2cc(Cl)c(N)cc2OC)C3)cc1 [Compound 15, 4amino-5-chloro-2-methoxy-N-(3β-[8'[4"ethoxybenzyl]-8'-azabicyclo[3.2.1]octyl])-benzamide]		0.1 mg/kg	10 mg/kg		
COc1cc(N)c(Cl)cc1C(=O)N[C@@H]1C[C@H]2CC[C@@H](C1)N2Cc1ccc(Cl)cc1 [Compound 16, 4amino-5-chloro-2-methoxy-N-(3β-[8'[4"chlorobenzyl]-8'-azabicyclo[3.2.1]octyl])-benzamide]			2 mg/kg		
COc1cc(N)c(Cl)cc1C(=O)N[C@H]1C[C@H]2CCC[C@@H](C1)N2C [Compound 21, 4-amino-5-chloro-2-methoxy-N-(3'α-[9'-methyl-9'-azabicyclo[3.3.1]nonyl])benzamide]	IA(50)		10 mg/kg	5 mg/kg	
COc1cc(N)c(Cl)cc1C(=O)N[C@@H]1C[C@H]2CCC[C@@H](C1)N2C [Compound 22, 4-amino-5-chloro-2-methoxy-N-(3'β-[9'-methyl-9'-azabicyclo[3.3.1]-nonyl])-benzamide]	IA(25)		IA (inactive at 10 mg/Kg p.o.)	1 mg/kg	III(b) Increase in Gastric Emptying (gastric emptying): IA(25)
CCN1[C@@H]2CC[C@H]1C[C@H](NC(=O)c1cc(Cl)c(N)cc1OC)C2 [Compound 23, 4-amino-5-chloro-2-methoxy-N-(3'β-[8'-ethyl-8'-azabicyclo[3.2.1]octyl])benzamide]	IA(25)	1.6 mg/kg	IA (inactive at 10 mg/Kg p.o.)	1 to 10 mg/kg	III(b) Increase in Gastric Emptying (gastric emptying): 25%
CCCN1[C@@H]2CC[C@H]1C[C@H](NC(=O)c1cc(Cl)c(N)cc1OC)C2 [Compound 24, 4-amino-5-chloro-2-methoxy-N-(3'β-[8'-n-propyl-8'-azabicyclo[3.2.1]-octyl])benzamide]	IA(25)	0.4 mg/kg	IA (inactive at 10 mg/Kg p.o.)	5 to 10 mg/kg	III(b) Increase in Gastric Emptying (gastric emptying): IA(25)
COc1cc(N)c(Cl)cc1C(=O)N[C@@H]1C[C@H]2CC[C@@H](C1)N2C(C)C [Compound 25, 4-amino-5-chloro-2-methoxy-N-(3'β-[8'-iso-propyl-8'-azabicyclo[3.2.1]-octyl])benzamide]	IA(25)		IA (inactive at 10 mg/Kg p.o.)	5 mg/kg	ED50 (vomiting response; sc, ED50, read-out: II Anti-Emetic Activity Dose, ED50): 0.8 mg/kg; III(b) Increase in Gastric Emptying (gastric emptying): IA
COc1cc(N)c(Cl)cc1C(=O)N[C@@H]1C[C@H]2CC[C@@H](C1)N2CC(C)C [Compound 28, 4-amino-5-chloro-2-methoxy-N-(3'β-[8'-isobutyl-8'-azabicyclo-[3.2.1]-octyl])-benzamide]		0.2 mg/kg		5 mg/kg	
COc1cc(N)c(Cl)cc1C(=O)N[C@@H]1C[C@H]2CC[C@@H](C1)N2C1CCCCC1 [Compound 31, 4-amino-5-chloro-2-methoxy-N-(3'β-[8'-cyclohexyl-8-azabicyclo[3.2.1]octyl])benzamide]		0.25 mg/kg	IA (inactive at 10 mg/Kg p.o.)		
C=CCN1[C@@H]2CC[C@H]1C[C@H](NC(=O)c1cc(Cl)c(N)cc1OC)C2 [Compound 32, 4-amino-5-chloro-2-methoxy-N-(3'β-[8'-ally-8-azabicyclo[3.2.1]octyl])benzamide]		0.2 mg/kg			
